Source: article PMC9525345, “Hypoalbuminemia affects the spatio-temporal tissue distribution of ochratoxin A in liver and kidneys: consequences for organ toxicity” (Archives of Toxicology, 2022)
Read-outs that look alike come from different tables or passages of the source.

Columns and labels:
[1] = design: method as in EFSA [2020]; conditions: ref EFSA [2020]; cited from earlier work
mice [2] = tested on: mice; design: method as in Bendele et al. [1985]; Kanisawa and Suzuki [1978]; conditions: mice-fed diets containing 40 ppm, equivalent to 5.6 mg/kg b.w. per day; ref Bendele et al. [1985]; Kanisawa and Suzuki [1978]; cited from earlier work
[3] = tested on: wild-type and albumin knockout mice; test: Ochratoxin A toxicity experiment: liver (histopathology, ALT, AST); assay type: in vivo; conditions: 24 h; for liver histopathology: 10 mg/kg i.v. single dose
Method: (§1) To study the role of albumin in OTA toxicity, 8-week-old female homozygote and heterozygote albumin-deficient mice, and corresponding C57BL/6 J wild-type controls were challenged intravenously with 10 mg/kg OTA (#10470691, Fisher Scientific) dissolved in 0.1 M NaHCO3, pH 7.4, with an application volume of 2 ml/kg. On day 1 after OTA injection, heart blood samples were collected, and plasma was separated according to a standard protocol (Gianmoena et al. [2021]). In addition, tissue specimens were collected from the left liver lobe and kidneys, fixed for 2 days in 4% paraformaldehyde (#P087-5, Roth), and finally embedded in paraffin for histopathology and immunohistochemistry analyses (Schneider et al. [2021b]).
(§2) Plasma concentration of albumin, creatinine, and blood urea nitrogen (BUN), as well as activities of alanine transaminase (ALT), and aspartate transaminase (AST) were analyzed by the Piccolo Xpress Chemistry Analyzer (Hitado, Germany) using the Piccolo general chemistry 13 panel (#AB-114-400-0029, Hitado, Germany).
(§3) Hematoxylin and eosin (H&E) staining was performed in 4 µm-thick paraffin-embedded liver and kidney tissue sections as previously described (Campos et al. [2020]).
(§4) Visualization of albumin protein expression in the liver tissue, and immune cell infiltration in the liver and kidney tissues was done by immunohistochemistry using an autostainer (Discovery Ultra Automated Slide Preparation System, Roche, Germany) (Ghallab et al. [2021b]). For this purpose, 4 µm-thick paraffin-embedded liver or kidney tissue sections were incubated with primary antibodies against albumin (# ab192603, abcam), CD45 (a pan leukocyte marker; #550,539, BD Bioscience), and FSP1 (a marker of inflammatory subpopulation of macrophages (Österreicher et al. [2011]) (#ab197896, Abcam). Dilutions of the primary antibodies as well as the used secondary antibodies are described in Table 2. Following staining, entire slides were scanned (Axio Scan.Z1, Zeiss, Germany) and representative images are shown in the results section.

[4] = design: method as in Perry et al. [2003]; conditions: weak organic acid; ref Perry et al. [2003]; cited from earlier work
[5] = Intravital two-photon imaging of OTA transport in the kidneys; assay type: in vivo, mice; conditions: 5 mg/kg tail vein bolus
Description: (§5) Intravital imaging of OTA transport in the livers and the kidneys of anesthetized wild-type and albumin knockout mice was done using an inverted two-photon microscope (LSM MP7, Zeiss, Germany). Details of the surgical preparation of the mice and exposure of the liver and the kidneys for imaging were previously described (Ghallab et al. [2021a]; Reif et al. [2017]). Tissue morphology was visualized by intravenous administration of the mitochondrial membrane potential marker tetramethylrhodamine ethyl ester (TMRE) (#T669, ThermoFisher Scientific) approximately 10 min before recording (Table 2). To image its transport kinetics in the liver and kidneys, a bolus of OTA (5 mg/kg) was administered via a tail vein catheter (SAI-infusion, IL, USA) within approximately 20 s after the onset of recording; the first few frames recorded prior to the OTA administration served to detect the basal tissue auto-fluorescence (Table 2). The mice were kept under controlled ambient temperature conditions of 36 °C, with exposure to a maintenance isoflurane inhalation anesthesia during the entire recording session.
(§6) During image processing, rigid body registration was performed using StackReg (Thévenaz et al. [1998]) to compensate for tissue movement in the recorded time series. From these stabilized videos, 2D projections were generated using average and standard deviation operators. The pixel classification and autocontext workflows of the interactive image segmentation software ilastik (version 1.3.3post1) (Berg et al. [2019]) were used for compartment segmentation in the 2D projections of liver and kidney. The compartments considered are sinusoids, hepatocyte cytoplasm and bile canaliculi in the liver, as well as inter-tubular capillaries, renal tubular lumen, and the tubular epithelial cells in the kidney. Mean raw OTA intensities were measured per compartment and frame. In addition, for the kidney, mean OTA intensities per tubule were measured based on the signal in the TMRE positive cell compartment, and tubules were subsequently grouped into two sets using k-means clustering based on their maximum mean OTA intensity over time.
(§7) For the calculation of the elimination half-life, Microsoft excel was used. First, the decadic logarithm of the intensity was plotted against the time. Then, the linear declining portion of the curve was selected manually and used for construction of a trend line. Next, the slope of the trendline was multiplied by 2.303 to convert the decadic to the natural logarithm and enable usage of the following formulas: • kel = -slope (Certara knowledgebase) • T ½ = ln (2) /kel (Certara knowledgebase)

[6] = design: method as in O'Brien and Dietrich [2005]; Ringot et al. [2006]; conditions: mice, per os; ref O'Brien and Dietrich [2005]; Ringot et al. [2006]; cited from earlier work
[7] = Intravital two-photon imaging of OTA transport in the liver; assay type: in vivo, mice
Description: as §5, §6, §7

[8] = design: method as in Anzai et al. [2010]; Ringot et al. [2006]; conditions: ref Anzai et al. [2010]; Ringot et al. [2006]; cited from earlier work
HSA = tested on: HSA; design: method as in Poor et al. [2013]; Sueck et al. [2018]; conditions: ref Poor et al. [2013], Sueck et al. [2018]; cited from earlier work
[9] = tested on: wild-type and albumin knockout mice; test: Ochratoxin A toxicity experiment: kidney (histopathology, creatinine, BUN, CD45); assay type: in vivo; conditions: 24 h
Method: as §1, §2, §3, §4

mice [10] = tested on: mice; design: method as in IARC [1993]; conditions: ref IARC [1993], cited from earlier work
[11] = design: method as in O'Brien and Dietrich [2005]; Ringot et al. [2006]; conditions: human; ref O'Brien and Dietrich [2005]; Ringot et al. [2006]; cited from earlier work
[12] = heterozygous albumin knockout mice
[13] = homozygous albumin knockout mice

SMILES: C[C@@H]1Cc2c(Cl)cc(C(=O)N[C@@H](Cc3ccccc3)C(=O)O)c(O)c2C(=O)O1 [OTA, Ochratoxin A]
- Log Pow [1]: 4.37
- tumor induction in chronic toxicity studies (mice [2]): induced liver and kidney tumors
- liver histopathology [3, 12]: massive pericentral necrosis and hemorrhage
- blood biomarkers of liver injury ALT and AST ([3]; heterozygous albumin-deficient mice compared to wild-type and homozygous, 10 mg/kg i.v.): significantly increased values
- liver histopathology [3, 13]: appeared smaller compared to the heterozygous animals
- liver histopathology ([3]; wild-type mice): small clusters of dead cells in the pericentral compartment of the liver lobule
- pKa, carboxyl group [4]: 4.3
- pKa, phenolic hydroxyl group [4]: 7.2
- OTA signal in tubular lumen and tubular epithelial cells [5, 12]: a longer duration and higher intensity of the OTA signal in the tubular epithelial cells
- OTA signal in tubular lumen and tubular epithelial cells [5, 13]: rapid filtration into the renal tubular lumen and enrichment into the tubular epithelial cells
- half-life ([5]; mouse, renal blood capillaries (kidney), intravenous, homozygous albumin knockout mice, read-out: half-life of OTA signal in renal blood capillaries): ~0.28 min
- OTA signal in tubular lumen and tubular epithelial cells ([5]; wild-type mice): only a weak, transient increase was seen in the lumen and cytoplasm of the tubular epithelial cells
- Half-life in blood t1/2 [6]: 40 h
- transport of OTA to hepatocytes and bile canaliculi ([7]; heterozygous albumin knockout mice, 5 mg/kg tail vein bolus): transient increases in hepatocytes and enrichment in bile canaliculi
- disappearance of OTA from blood after bolus injection [7, 13]: completely disappeared from the blood of homozygous albumin knockout mice within a minute
- transport of OTA to hepatocytes and bile canaliculi ([7]; homozygous albumin knockout mice, 5 mg/kg tail vein bolus): massively increased canalicular secretion with almost no increase in the hepatocytes
- half-life ([7]; mouse, sinusoidal blood (liver), intravenous, homozygous albumin knockout mice, 5 mg/kg tail vein bolus, read-out: half-life of OTA signal in sinusoidal blood): ~0.22 min
- transport of OTA to hepatocytes and bile canaliculi ([7]; wild-type mice, 5 mg/kg tail vein bolus): No transport of OTA to hepatocytes and bile canaliculi was detectable
- plasma protein-binding capacity [8]: > 99%
- Albumin binding K (HSA): ~10^7
- Albumin binding log K (HSA): 7.0 – 7.6
- blood biomarkers of kidney damage, creatinine and urea nitrogen ([9]; between the three mouse models, 10 mg/kg i.v.): no significant differences
- immune cell infiltration in kidney (CD45) ([9]; wild type and albumin knockout mice, 10 mg/kg i.v.): no obvious immune cell infiltration
- macroscopical or histopathological alterations in kidney tissue ([9]; wild-type, heterozygous and homozygous knockout mice, 10 mg/kg i.v. single dose): did not cause obvious macroscopical or histopathological alterations in the kidney tissue
- Acute toxicity LD50 (mice [10]; i.v.): 25.7 to 33.8 mg/kg
- Acute toxicity LD50 (mice [10]; p.o.): 46 to 58.3 mg/kg
- Half-life in blood t1/2 [11]: 35.5 days
